According to US20260076948A1, “TREATMENT OF DIABETIC RETINOPATHY USING ENDOTHELIN RECEPTOR ANTAGONISTS” (Perfuse Therapeutics, Inc., priority 2019, published 2026):
“Also recorded” adds a separate entry of the source.

Key:
[1] = system: oxygen-induced ischemic retinopathy (OIR); assay: Mouse oxygen-induced ischemic retinopathy (OIR), retinal hypoxia area; format: in vivo; conditions: OIR mice, IVT single dose 1 μL of 2 μg/μL; 24, 48, 96 hours
Protocol: A relevant mice model was used to obtain the retinal hypoxia area in mice with oxygen-induced ischemic retinopathy (OIR) at different time points, as shown in FIG. 4. […] Briefly, at P17, mice with OIR (n=60) were given an injection of ET-1 antagonist (1 μL of 2 μg/μL Edonentan formulation, single dose) in one eye and PBS in the fellow eye. At 24, 48, and 96 hours after injection, mice (n=10 for each time point) were euthanized and the retinas were dissected and stained with GSA lectin and hypoxyprobe. The area of NV, area of retinal hypoxia, and the area of retinal nonperfusion were determined for each retina.

[2] = Solubility (pH 2, pH 7, ethyl acetate); format: physicochemical
Description: In the above table, the physicochemical data, e.g., solubility, were obtained following standard protocols known in the field (see, e.g., Reis et al., Mini Rev Med Chem., 2010, 10(11):1071-6; Avdeef et al., Expert Opin Drug Metab Toxicol., 2005, 1(2):325-42; Bharate et al., Comb Chem High Throughput Screen., 2016, 19(6):461-9; and Jain et al., J Pharm Biomed Anal., 2013, 86:11-35.); and the biochemical data, i.e., potency for ETA/ETB, were obtained following the protocols known in the field (see, e.g., Kirkby et al., Br J Pharmacol., 2008, 153(6):1105-19; and Maguire et al., Br J Pharmacol., 2014, 171(24):5555-72.).

[3] = system: Morrison's rat model of glaucoma (elevated IOP); assay: Morrison's rat model of glaucoma (RGC counts, PERG); format: in vivo, Brown Norway rats; conditions: topical eye drops 100 μg per dose, five days a week, four weeks
Description: Adult male and female retired breeder Brown Norway rats (approximate age groups of 8 to 11 months) were obtained from Envigo (Indianapolis, IN). Baseline IOP measurements and pattern electroretinogram (PERG) amplitudes were collected prior to the surgery for elevation of IOP (to ensure that the IOP and PERG amplitudes were in the expected range of values). IOP was elevated in one eye (left eye) of the rats, while the corresponding right eyes served as contralateral controls. The Morrison method to elevate IOP in rats was carried out by injection of 50 μL. of hypertonic saline through the episcleral veins to sclerose the trabecular meshwork. IOP was measured twice a week throughout the entire duration of the experiment. […] After detecting an elevation of IOP for two consecutive days, topical administration of eye drops (20 μL (100 μg) per dose of the tested compounds in the IOP elevated eye) was commenced and carried out for five days a week for a total of four weeks. In the 4th week of treatment, PERG analysis was carried out and rats were sacrificed by an overdose of pentobarbital (Fatal-Plus). Aqueous humor was collected from the rat eyes, frozen and shipped for analysis. Retinal flat mounts were prepared, immunostained with the RGC marker, Brn3a antibody and surviving RGCs were counted in two eccentricities (central and peripheral).
For this study, the Morrison's model was used to induce ocular hypertension in adult male retired breeder Brown Norway rats as previously described by Morrison et al., (Morrison J C, Moore C G, Deppmeier L M, Gold B G, Meshul C K, Johnson E C. A rat model of chronic pressure-induced optic nerve damage. Exp Eye Res. 1997; 64(1):85-96).
The immunostained retinal flat mounts were obtained to measure the retinal ganglion cell (RGC) counts. To obtain immunostained retinal flat mounts, the animals were euthanized after the treatments and then their eyes were enucleated. The eye cups were fixed overnight at 4° C. in 4% paraformaldehyde (PFA) and retinal flat mounts were prepared for collecting images. The retinal ganglion cell (RGC) counting was conducted using the images of immunostained retinal flat mounts. The images were uploaded to ImageJ, a photo editor designed for biology research (Rasband, 1997-2018) and the labeled retinal ganglion cells were counted manually in two eccentricities (central and peripheral).
Pattern ERG (PERG) was used to assess the RGC function. […] Briefly, PERG signals were acquired from a DTL-plus electrode placed on the lower part of the corneal surface and the PERG waves were analyzed using the EMWIN software (LKC). The difference between the amplitude of the major positive (P1) and negative (N2) waves were calculated to decipher the PERG amplitude.

[4] = system: ETA/ETB receptor; conditions: background statement; cited from earlier work
[5] = Pharmacokinetics after topical or oral administration in the rat; format: in vivo, Brown Norway rats
Protocol: After the administrations, the animals (N=2) were euthanized at different time points (e.g. 4 and 8 hours) and tissues were collected for analysis. List of tissues collected include plasma, retina/retinal pigment epithelium (RPE)/choroid, vitreous humor and aqueous humor.

- Solubility in Ethyl Acetate, rating in words ([2]; ethyl acetate): Good
- Solubility at pH 2 ([2]; pH 2): <1 μM
- Solubility at pH 7, comparison in words ([2]; pH 7): superior to that of A-182086
- Detection in the aqueous humor after oral administration ([5]; oral, 17 mg/kg as printed): detectable
- Detection in the retina/RPE/choroid and vitreous humor after oral administration ([5]; oral, 1.7 and 17 mg/kg as printed): detectable
Compound: Cc1onc(NS(=O)(=O)c2ccccc2-c2ccc(-c3ncco3)cc2CN(C)C(=O)CC(C)(C)C)c1C [Edonentan, N-[[2′-[[(4,5-dimethyl-3-isoxazolyl)amino]sulfonyl]-4-(2-oxazolyl)[1,1′-biphenyl]-2-yl]methyl]-N,3,3-trimethylbutanamide]
- Retinal hypoxia area [1]: improvement of retinal hypoxia; also recorded: improved retinal hypoxia
- Pattern electroretinogram (PERG) changes, RGC function [3]: maintained RGC function
- Retinal ganglion cell (RGC) counts in the peripheral retina [3]: prevented RGC loss
- Endothelin receptor antagonism, description in words [4]: highly selective and very potent endothelin A receptor antagonist
- Ocular exposure after topical administration (retina/RPE/choroid, aqueous humor, vitreous humor) ([5]; eye drop 100 μg, 4 and 8 hours): detected; also recorded: permeate through cornea/sclera and achieve retina exposure
